The values that follow come from patent US20240002846A1, “COMPOSITIONS AND METHODS FOR THE DIAGNOSIS AND TREATMENT OF ITCH” (Duke University, priority 2020, published 2024).

In assay [1] the test system is vesicular release from mKC. Kind of assay: Vesicular release from cultured mouse keratinocytes (AChE activity). In kind it is cell-based. Conditions: 10 μM. The protocol:
Vesicular release from cultured keratinocytes was quantified by detecting acetylcholinesterase (AChE) activity in the extracellular release fluid. (Gupta et al. Am. J. Physiol. Heart Circ. Physiol. 2007, 292, H3052-3056; Malik et al. Methods Mol. Biol. 2016, 1448, 237-248). CBQCA Protein Quantitation Kit (Molecular Probes, Eugene, OR) was used to assess the total protein amounts of each sample. Quantitation was carried out according to kit instructions (Fluorocet, Systems Biosciences, Palo Alto, CA). Briefly, vesicles were lysed to release esterase enzyme whose activity is measured using a florescence dye, excitation at 544 nm and emission at 590 nm. Fluostar Optima (BMG Labtech, Cary, NC) microplate reader was used to measure esterase activity. 500 ng protein equivalent of input was used per well. To determine the contribution of Rab5a and Rab27a to LPC-induced miR-146a release, cells were pre-treated with the Rab5a (5′-GUAGAAUCAA GUUUCUAAUUCUGAA-3′ SEQ ID NO: 9, 5′-[…]-3′ SEQ ID NO: 10) or Rab27a (5′-AGCUAAAA CUGAGAGCUUCAAACAG-3′ SEQ ID NO: 11, 5′-[…]-3′ SEQ ID NO: 12) siRNA (IDT, Coralville, IA) for 72 h before stimulation. Control cells were treated with scramble siRNA.

For a further assay, the target named is T1, hTRPV4-R746G (Homo sapiens, UniProt Q9HBA0, R746G).
T1 construct: expressed in transfected cells; host or cells: HEK293
Kind of assay: Inside-out patch-clamp, hTRPV4-R746G. In kind it is biochemical. To be noted: 5 μM LPC 18:1. The protocol:
(§1) Cell culture and transfection. HEK293 cells (ATCC® CRL-1573) were cultured on poly-D-lysine coated coverslips in 24-well plate containing DMEM media with high-Glucose (Gibco, Gaithersburg, MD) supplemented with 10% fetal bovine serum (FBS, HyClone Laboratories, Logan, UT) and 100 U/mL of penicillin/streptomycin (Gibco, Gaithersburg, MD). Cell cultures were maintained with 5% of CO2 in a humidified incubator at 37° C. HEK cells were transfected with rat or human wild type or mutant TRPV4 channels with EGFP or YFP coupled to their C-termini (1.5 μg of plasmid for excised patch clamp and Ca^2+ imaging and 200 ng for single-channel experiments). […]
(§2) Electrophysiology. Currents were recorded using the inside-out configuration of the patch-clamp technique (Hamill et al. Pflugers Arch. 1981, 391, 85-100). […] Mean current values in response to GSK1016790A or LPC 18:1 were measured after channel activation had reached the steady-state (˜3 min). […] Currents were low-pass filtered at 2 kHz and sampled at 10 kHz with an EPC 10 amplifier (HEKA Elektronik) and were plotted and analyzed with Igor Pro (Wavemetrics Inc.).
In general terms: In patch-clamp work, channel activity is measured electrically.

For another assay, the target named is rTRPV4 (Rattus norvegicus, UniProt Q9ERZ8). Kind of assay: Inside-out patch-clamp, HEK cells transfected with rTRPV4. It is filed as biochemical. Further details: expressed in transfected cells; host or cells: HEK293. To be noted: 5 μM LPC 18:1, WT-rTRPV4, inside-out patches. Here is the method:
as §1, §2

A further assay deals with rTRPV4-R746D (Rattus norvegicus, UniProt Q9ERZ8, R746D). Nature of the assay: In vitro interaction (overlay) assay LPC-TRPV4-R746D. It is filed as binding. Details: made in house; host or cells: HEK293 cells, surface protein fraction. To be noted: 200 pmol per spot. The protocol: In vitro interaction assays of LPC-TRPV4. Surface proteins were obtained from HEK293 cells transiently expressing rTRPV4-EGFP channels using the Pierce Cell Surface Isolation kit (Pierce Biotechnology, Rockford, IL) following the manufacturer's instructions. Overlay assays were performed as previously described (Morales-Lazaro et al. Nat. Commun. 2016, 7, 13092). In brief, LPC 18:1 was spotted (200 pmol per spot) onto a nitrocellulose membrane (GE Healthcare, Pittsburgh, PA) and then blocked with 1% fatty acid-free BSA (Calbiochem) and 6% fat-free dried milk in PBS. Membranes were then incubated with the surface protein solutions and exposed to anti-GFP antibody (Sigma, St. Louis, MO) diluted 1:1000 in 3% fat-free dried milk in PBST (with 0.1% of Tween). Membranes were incubated with horseradish peroxidase-conjugated secondary anti-rabbit antibody (Cell Signaling Technology) diluted 1:7500 in 6% fat-free dried milk in PBST. The binding of rTRPV4-EGFP and TRPV4-R746D-EGFP to the lipid-containing spots was visualized by chemiluminescence by exposing the blot for 15 min (Amersham Bioscience, Piscataway, NJ). Semi-quantitative densitometric analysis was done using ImageJ (NIH) and expressed as relative protein levels of TRPV4 bound to each spot.

Several values for one entry are separate records, joined by “and”; a condition that tells them apart may be missing. Identical values can stand only once.

Sequence of rTRPV4 (Q9ERZ8 whole entry): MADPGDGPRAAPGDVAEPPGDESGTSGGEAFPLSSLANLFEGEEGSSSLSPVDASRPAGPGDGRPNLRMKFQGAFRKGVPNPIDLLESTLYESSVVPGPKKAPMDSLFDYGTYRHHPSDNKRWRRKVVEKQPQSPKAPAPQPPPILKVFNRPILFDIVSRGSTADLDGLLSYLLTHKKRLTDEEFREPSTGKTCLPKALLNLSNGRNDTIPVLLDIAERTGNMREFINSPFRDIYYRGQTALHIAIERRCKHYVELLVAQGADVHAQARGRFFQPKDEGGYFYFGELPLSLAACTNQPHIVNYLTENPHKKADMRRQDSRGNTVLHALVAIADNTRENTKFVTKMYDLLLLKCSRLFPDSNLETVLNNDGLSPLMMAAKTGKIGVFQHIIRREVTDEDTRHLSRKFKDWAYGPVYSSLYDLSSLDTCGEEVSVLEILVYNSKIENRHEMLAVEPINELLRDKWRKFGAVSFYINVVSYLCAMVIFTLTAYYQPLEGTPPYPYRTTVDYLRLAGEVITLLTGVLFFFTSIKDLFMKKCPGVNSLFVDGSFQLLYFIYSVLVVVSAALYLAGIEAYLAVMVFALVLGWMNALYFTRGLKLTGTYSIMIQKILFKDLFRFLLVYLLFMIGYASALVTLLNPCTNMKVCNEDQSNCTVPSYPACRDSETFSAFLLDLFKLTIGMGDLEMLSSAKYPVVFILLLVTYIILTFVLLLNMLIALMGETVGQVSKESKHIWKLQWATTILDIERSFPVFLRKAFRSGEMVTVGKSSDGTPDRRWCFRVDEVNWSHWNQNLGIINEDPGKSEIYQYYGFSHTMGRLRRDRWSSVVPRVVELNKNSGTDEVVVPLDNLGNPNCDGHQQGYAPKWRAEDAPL
Sequence of rTRPV4-R746D (Q9ERZ8 whole entry R746D): as the sequence (Q9ERZ8 whole entry) above, with R746D counted along it
T1 sequence (Q9HBA0 whole entry R746G): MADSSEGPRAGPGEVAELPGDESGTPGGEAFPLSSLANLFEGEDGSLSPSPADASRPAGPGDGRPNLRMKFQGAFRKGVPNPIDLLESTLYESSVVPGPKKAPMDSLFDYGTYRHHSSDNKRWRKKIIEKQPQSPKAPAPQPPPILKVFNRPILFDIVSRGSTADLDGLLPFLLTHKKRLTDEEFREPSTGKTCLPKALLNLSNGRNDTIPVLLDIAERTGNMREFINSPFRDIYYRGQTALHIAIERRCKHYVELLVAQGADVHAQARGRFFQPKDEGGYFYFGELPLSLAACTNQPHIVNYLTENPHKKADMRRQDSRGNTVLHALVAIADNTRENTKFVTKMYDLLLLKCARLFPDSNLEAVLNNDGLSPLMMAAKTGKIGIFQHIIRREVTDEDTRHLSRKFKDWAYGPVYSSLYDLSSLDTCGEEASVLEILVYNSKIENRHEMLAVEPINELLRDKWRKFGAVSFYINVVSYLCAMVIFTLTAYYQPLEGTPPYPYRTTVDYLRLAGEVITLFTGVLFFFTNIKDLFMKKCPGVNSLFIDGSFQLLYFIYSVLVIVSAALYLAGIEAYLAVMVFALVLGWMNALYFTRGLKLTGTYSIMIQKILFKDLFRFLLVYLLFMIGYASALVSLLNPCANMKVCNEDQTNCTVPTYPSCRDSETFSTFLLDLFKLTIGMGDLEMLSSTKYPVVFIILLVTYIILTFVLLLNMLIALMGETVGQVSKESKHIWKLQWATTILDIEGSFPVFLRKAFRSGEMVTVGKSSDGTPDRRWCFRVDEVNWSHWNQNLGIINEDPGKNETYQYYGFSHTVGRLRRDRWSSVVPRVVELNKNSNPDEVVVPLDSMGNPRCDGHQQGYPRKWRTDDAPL

Take `N#CC(=C(/N)Sc1ccccc1N)/C(C#N)=C(\N)Sc1ccccc1N` [U0126]: in assay [1], the “effect of U0126 on LPC-induced vesicular release” value was “completely eliminated”.
On to LPC 18:1, for which the “average activation of currents, normalized to 1 μM GSK101” value is 13±4% at hTRPV4-R746G; 54±4% at rTRPV4; 54% and ~50% at rTRPV4 (listed as LPC (18:1)). For the same compound, the “binding of LPC 18:1 to rTRPV4-R746D relative to rTRPV4” value is given as “significantly reduced binding” at rTRPV4-R746D and “significant reduction of this interaction” on rTRPV4-R746D (listed as LPC (18:1)).
